Results on one compound are retold here after paper PMC5218480 (PLoS ONE, 2017).

This test relates to MV-4-11 cells. Put plainly: Gene expression microarray analysis (Affymetrix PrimeView) and GSEA. The test is classed as cell-based, human. Details: RFU PODN (11730768_x_at) / Fold change /veh PODN (11730768_x_at) / RFU LINC00158 (11744669_a_at) / Fold change /veh LINC00158 (11744669_a_at) / RFU DUSP10 (11751237_a_at) / Fold change /veh DUSP10 (11751237_a_at) / RFU ID3 (11757404_x_at) / Fold change /veh ID3 (11757404_x_at) / RFU PLEKHG5 (11737974_s_at) / Fold change /veh PLEKHG5 (11737974_s_at) / RFU LRRC4B (11730491_at) / Fold change /veh LRRC4B (11730491_at) / RFU GIMAP4 (11747438_a_at) / Fold change /veh GIMAP4 (11747438_a_at) / RFU KRT8 (11758183_x_at) / Fold change /veh KRT8 (11758183_x_at) / RFU CNN1 (11734310_a_at) / Fold change /veh CNN1 (11734310_a_at) / RFU VPS37D (11726825_at) / Fold change /veh VPS37D (11726825_at) / RFU C10orf10 (11716522_x_at) / Fold change /veh C10orf10 (11716522_x_at) / RFU KIR2DL2 /// KIR2DL4 /// KIR2DL5A /// KIR2DL5B /// KIR2DS1 /// KIR2DS2 /// KIR2DS3 /// KIR2DS4 /// KIR3DL3 /// KIR3DL3 /// KIR3DS1 (11738374_at) / Fold change /veh KIR2DL2 /// KIR2DL4 /// KIR2DL5A /// KIR2DL5B /// KIR2DS1 /// KIR2DS2 /// KIR2DS3 /// KIR2DS4 /// KIR3DL3 /// KIR3DL3 /// KIR3DS1 (11738374_at) / RFU C1QL1 (11718748_at) / Fold change /veh C1QL1 (11718748_at) / RFU TMPRSS4 (11747572_a_at) / Fold change /veh TMPRSS4 (11747572_a_at) / RFU HAMP (11756126_x_at) / Fold change /veh HAMP (11756126_x_at) / RFU RNFT2 (11725882_a_at) / Fold change /veh RNFT2 (11725882_a_at) / RFU NR4A2 (11747474_a_at) / Fold change /veh NR4A2 (11747474_a_at) / RFU ABCC12 (11746883_a_at) / Fold change /veh ABCC12 (11746883_a_at) / RFU TMEM136 (11760407_x_at) / Fold change /veh TMEM136 (11760407_x_at) / RFU CLDN22 /// WWC2 (11732394_at) / Fold change /veh CLDN22 /// WWC2 (11732394_at) / RFU HLA-DPB1 (11760878_x_at) / Fold change /veh HLA-DPB1 (11760878_x_at) / RFU SPINT1 (11716480_a_at) / Fold change /veh SPINT1 (11716480_a_at) / RFU GAP43 (11754022_s_at) / Fold change /veh GAP43 (11754022_s_at) / RFU A4GNT (11735810_at) / Fold change /veh A4GNT (11735810_at) / RFU PRB3 (11715151_x_at) / Fold change /veh PRB3 (11715151_x_at) / RFU TUBB4B (11761932_at) / Fold change /veh TUBB4B (11761932_at) / RFU CAPN14 (11732068_a_at) / Fold change /veh CAPN14 (11732068_a_at) / RFU TMCC2 (11721928_a_at) / Fold change /veh TMCC2 (11721928_a_at) / RFU IRGQ (11745062_a_at) / Fold change /veh IRGQ (11745062_a_at) / RFU FAM174B (11720279_a_at) / Fold change /veh FAM174B (11720279_a_at) / RFU TMPRSS4 (11748680_a_at) / Fold change /veh TMPRSS4 (11748680_a_at) / RFU FAM212B (11763350_a_at) / Fold change /veh FAM212B (11763350_a_at) / RFU PLEKHG5 (11743358_a_at) / Fold change /veh PLEKHG5 (11743358_a_at) / RFU ZSCAN30 (11745921_a_at) / Fold change /veh ZSCAN30 (11745921_a_at) / RFU CMKLR1 (11741424_a_at) / Fold change /veh CMKLR1 (11741424_a_at) / RFU LOC101060620 /// MAPK8IP1 (11723275_at) / Fold change /veh LOC101060620 /// MAPK8IP1 (11723275_at) / RFU SPTSSB (11747773_x_at) / Fold change /veh SPTSSB (11747773_x_at) / RFU PRSS12 (11739890_at) / Fold change /veh PRSS12 (11739890_at) / RFU BIN1 (11741810_x_at) / Fold change /veh BIN1 (11741810_x_at) / RFU WNT11 (11732464_a_at) / Fold change /veh WNT11 (11732464_a_at) / RFU C10orf10 (11716521_a_at) / Fold change /veh C10orf10 (11716521_a_at) / RFU C5orf56 (11738089_at) / Fold change /veh C5orf56 (11738089_at) / RFU CYB561 (11721691_x_at) / Fold change /veh CYB561 (11721691_x_at) / RFU ANKRD19P (11752326_a_at) / Fold change /veh ANKRD19P (11752326_a_at) / RFU OR2T12 /// OR2T33 /// OR2T8 (11738714_s_at) / Fold change /veh OR2T12 /// OR2T33 /// OR2T8 (11738714_s_at) / RFU VCAN (11748164_a_at) / Fold change /veh VCAN (11748164_a_at) / RFU JSRP1 (11732532_at) / Fold change /veh JSRP1 (11732532_at) / RFU KRTAP10-11 (11738290_x_at) / Fold change /veh KRTAP10-11 (11738290_x_at) / RFU MYO3A (11730013_a_at) / Fold change /veh MYO3A (11730013_a_at) / RFU EBF3 (11725865_a_at) / Fold change /veh EBF3 (11725865_a_at) / RFU CAMK2N1 (11719241_x_at) / Fold change /veh CAMK2N1 (11719241_x_at) / RFU C5orf56 (11738088_a_at) / Fold change /veh C5orf56 (11738088_a_at) / RFU OLFML3 (11715873_a_at) / Fold change /veh OLFML3 (11715873_a_at) / RFU LOC100653217 /// NTM (11731650_a_at) / Fold change /veh LOC100653217 /// NTM (11731650_a_at) / RFU MAPK11 (11762145_a_at) / Fold change /veh MAPK11 (11762145_a_at) / RFU FIZ1 (11724087_x_at) / Fold change /veh FIZ1 (11724087_x_at) / RFU OASL (11726364_x_at) / Fold change /veh OASL (11726364_x_at) / RFU SOX15 (11748057_x_at) / Fold change /veh SOX15 (11748057_x_at) / RFU CD79A (11719716_a_at) / Fold change /veh CD79A (11719716_a_at) / RFU HIST1H1D (11736915_at) / Fold change /veh HIST1H1D (11736915_at) / RFU CASKIN2 (11723855_a_at) / Fold change /veh CASKIN2 (11723855_a_at) / RFU LOC730098 (11760151_x_at) / Fold change /veh LOC730098 (11760151_x_at) / RFU OR4N2 (11742367_at) / Fold change /veh OR4N2 (11742367_at) / RFU PRRT2 (11749266_a_at) / Fold change /veh PRRT2 (11749266_a_at) / RFU SNX32 (11753110_a_at) / Fold change /veh SNX32 (11753110_a_at) / RFU CDHR5 (11726645_a_at) / Fold change /veh CDHR5 (11726645_a_at) / RFU RCAN1 (11760418_a_at) / Fold change /veh RCAN1 (11760418_a_at) / RFU FAM167A (11723789_a_at) / Fold change /veh FAM167A (11723789_a_at) / RFU FAM26E (11764081_at) / Fold change /veh FAM26E (11764081_at) / RFU ISYNA1 (11749810_s_at) / Fold change /veh ISYNA1 (11749810_s_at) / RFU ACY1 (11761880_at) / Fold change /veh ACY1 (11761880_at) / RFU 11764098_at / Fold change /veh 11764098_at / RFU SAMD14 (11745864_x_at) / Fold change /veh SAMD14 (11745864_x_at) / RFU NPB (11741838_a_at) / Fold change /veh NPB (11741838_a_at) / RFU TMPRSS6 (11731388_a_at) / Fold change /veh TMPRSS6 (11731388_a_at) / RFU KRTAP10-2 (11738614_at) / Fold change /veh KRTAP10-2 (11738614_at) / RFU ARHGAP8 /// PRR5-ARHGAP8 (11727945_x_at) / Fold change /veh ARHGAP8 /// PRR5-ARHGAP8 (11727945_x_at) / RFU KRTAP5-7 /// NADSYN1 (11734609_at) / Fold change /veh KRTAP5-7 /// NADSYN1 (11734609_at) / RFU RASL12 (11751679_a_at) / Fold change /veh RASL12 (11751679_a_at) / RFU CDKN2B (11736163_a_at) / Fold change /veh CDKN2B (11736163_a_at) / RFU PRF1 (11729649_at) / Fold change /veh PRF1 (11729649_at) / RFU, ZNF638 /// ZNF638-IT1 / Fold change vs veh, ZNF638 /// ZNF638-IT1 / RFU, PANK3 / Fold change vs veh, PANK3 / RFU, SH3YL1 / Fold change vs veh, SH3YL1 / RFU, ZEB2 / Fold change vs veh, ZEB2 / RFU, NRIP1 / Fold change vs veh, NRIP1 / RFU, PTTG1IP / Fold change vs veh, PTTG1IP / RFU, CAPN2 / Fold change vs veh, CAPN2 / RFU, MED14 / Fold change vs veh, MED14 / RFU, SNORA58 / Fold change vs veh, SNORA58 / RFU, C1orf63 / Fold change vs veh, C1orf63 / RFU, LRRFIP1 / Fold change vs veh, LRRFIP1 / RFU, NDUFAF7 / Fold change vs veh, NDUFAF7 / RFU, SLC12A2 / Fold change vs veh, SLC12A2 / RFU, IBTK / Fold change vs veh, IBTK / RFU, ESF1 / Fold change vs veh, ESF1 / Fold change vs veh, TMEM50B / RFU, TAOK1 / Fold change vs veh, TAOK1 / RFU, ACBD3 / Fold change vs veh, ACBD3 / RFU, TMA16 / Fold change vs veh, TMA16 / RFU, RWDD3 / Fold change vs veh, RWDD3 / RFU, BCAT1 / Fold change vs veh, BCAT1 / RFU, EDEM3 / Fold change vs veh, EDEM3 / RFU, TMEM33 / Fold change vs veh, TMEM33 / RFU, WDR75 / Fold change vs veh, WDR75 / RFU, AHCTF1 / Fold change vs veh, AHCTF1 / RFU, TFRC / Fold change vs veh, TFRC / RFU, ZDHHC17 / Fold change vs veh, ZDHHC17 / RFU, NOM1 / Fold change vs veh, NOM1 / RFU, ARL8B / Fold change vs veh, ARL8B / RFU, ZBTB11 / Fold change vs veh, ZBTB11 / RFU, TAMM41 / Fold change vs veh, TAMM41 / RFU, KIAA1704 /// LOC100996395 / Fold change vs veh, KIAA1704 /// LOC100996395 / RFU, ING1 / Fold change vs veh, ING1 / RFU, TRMT61B / Fold change vs veh, TRMT61B / RFU, FUBP3 / Fold change vs veh, FUBP3 / RFU, TP53 / Fold change vs veh, TP53 / RFU, TNKS2 / Fold change vs veh, TNKS2 / RFU, ZFP14 / Fold change vs veh, ZFP14 / RFU, ACTR2 / Fold change vs veh, ACTR2 / RFU, PPP3R1 / Fold change vs veh, PPP3R1 / RFU, PIK3R1 / Fold change vs veh, PIK3R1 / RFU, HNRNPA1 / Fold change vs veh, HNRNPA1 / RFU, RNF170 / Fold change vs veh, RNF170 / RFU, ZNF28 / Fold change vs veh, ZNF28 / RFU, RNGTT / Fold change vs veh, RNGTT / RFU, OGT / Fold change vs veh, OGT / RFU, BRD1 / Fold change vs veh, BRD1 / RFU, MARS / Fold change vs veh, MARS / RFU, ZNF655 / Fold change vs veh, ZNF655 / RFU, FAHD1 / Fold change vs veh, FAHD1 / RFU, BDP1 / Fold change vs veh, BDP1 / RFU, LRRCC1 / Fold change vs veh, LRRCC1 / RFU, ARID1A / Fold change vs veh, ARID1A / RFU, ZNF146 / Fold change vs veh, ZNF146 / RFU, ZNF330 / Fold change vs veh, ZNF330 / RFU, GPN3 / Fold change vs veh, GPN3 / RFU, C9orf123 / Fold change vs veh, C9orf123 / RFU, N4BP2L2 / Fold change vs veh, N4BP2L2 / RFU, ARFIP1 / Fold change vs veh, ARFIP1 / RFU, FAM179B / Fold change vs veh, FAM179B / RFU, BCL10 / Fold change vs veh, BCL10 / RFU, UHRF1BP1L / Fold change vs veh, UHRF1BP1L / RFU, BET1 / Fold change vs veh, BET1 / RFU, CNOT2 / Fold change vs veh, CNOT2 / RFU, ZNF268 / Fold change vs veh, ZNF268 / Fold change vs veh, ZNF507 / RFU, DGCR2 / Fold change vs veh, DGCR2 / RFU, WDSUB1 / Fold change vs veh, WDSUB1 / Fold change vs veh, HSP90B1 /// MIR3652 / RFU, ADSS / Fold change vs veh, ADSS / RFU, GK / Fold change vs veh, GK / RFU, ZNF148 / Fold change vs veh, ZNF148 / RFU, TAF9 / Fold change vs veh, TAF9 / RFU, SLC1A5 / Fold change vs veh, SLC1A5 / RFU, SLMO2 / Fold change vs veh, SLMO2 / RFU, ABCC4 / Fold change vs veh, ABCC4 / RFU, LOC101060439 /// RAP1B / Fold change vs veh, LOC101060439 /// RAP1B / RFU, RFX7 / Fold change vs veh, RFX7 / RFU, GTPBP10 / Fold change vs veh, GTPBP10 / RFU, CNEP1R1 / Fold change vs veh, CNEP1R1 / RFU, BIVM-ERCC5 /// ERCC5 / Fold change vs veh, BIVM-ERCC5 /// ERCC5 / RFU, ILF3 / Fold change vs veh, ILF3 / RFU 11762660_at / Fold change /veh 11762660_at / RFU VCAN (11757783_s_at) / Fold change /veh VCAN (11757783_s_at) / RFU DDX43 (11728927_at) / Fold change /veh DDX43 (11728927_at) / RFU KRT8 (11758188_x_at) / Fold change /veh KRT8 (11758188_x_at) / RFU NKD1 (11759106_at) / Fold change /veh NKD1 (11759106_at) / RFU SRD5A1 (11742802_a_at) / Fold change /veh SRD5A1 (11742802_a_at) / RFU TPSAB1 /// TPSB2 (11721975_s_at) / Fold change /veh TPSAB1 /// TPSB2 (11721975_s_at) / RFU GSTM3 (11746129_a_at) / Fold change /veh GSTM3 (11746129_a_at) / RFU IL23R (11737362_x_at) / Fold change /veh IL23R (11737362_x_at) / RFU TMEM51 (11727254_a_at) / Fold change /veh TMEM51 (11727254_a_at) / RFU PIWIL2 (11732686_x_at) / Fold change /veh PIWIL2 (11732686_x_at) / RFU ORM1 (11744905_x_at) / Fold change /veh ORM1 (11744905_x_at) / RFU CCDC152 (11743942_at) / Fold change /veh CCDC152 (11743942_at) / RFU ECM1 (11717891_a_at) / Fold change /veh ECM1 (11717891_a_at) / RFU IL23R (11748794_a_at) / Fold change /veh IL23R (11748794_a_at) / RFU TNFAIP8L3 (11732012_x_at) / Fold change /veh TNFAIP8L3 (11732012_x_at) / RFU MBOAT4 (11741988_at) / Fold change /veh MBOAT4 (11741988_at) / RFU 11764193_at / Fold change /veh 11764193_at / RFU TMEM53 (11763286_at) / Fold change /veh TMEM53 (11763286_at) / RFU MAGEB2 (11727129_at) / Fold change /veh MAGEB2 (11727129_at) / RFU TMEM200A (11744735_a_at) / Fold change /veh TMEM200A (11744735_a_at) / RFU CCDC152 (11751479_a_at) / Fold change /veh CCDC152 (11751479_a_at) / RFU FAM211A (11726209_a_at) / Fold change /veh FAM211A (11726209_a_at) / RFU RGS16 (11746705_a_at) / Fold change /veh RGS16 (11746705_a_at) / RFU VCAN (11755009_s_at) / Fold change /veh VCAN (11755009_s_at) / RFU RHOB (11743442_s_at) / Fold change /veh RHOB (11743442_s_at) / RFU RGS16 (11720943_a_at) / Fold change /veh RGS16 (11720943_a_at) / RFU RGS16 (11720944_at) / Fold change /veh RGS16 (11720944_at) / RFU, VPS4B / Fold change vs veh, VPS4B / RFU, CREB1 / Fold change vs veh, CREB1 / RFU, DNAJC13 / Fold change vs veh, DNAJC13 / RFU, GNAQ / Fold change vs veh, GNAQ / RFU, CDK5R1 / Fold change vs veh, CDK5R1 / RFU, ZRANB3 / Fold change vs veh, ZRANB3 / RFU, CUL4A / Fold change vs veh, CUL4A / RFU, CCNY / Fold change vs veh, CCNY / RFU, UFL1 / Fold change vs veh, UFL1 / RFU, COG3 / Fold change vs veh, COG3 / RFU, DIAPH2 / Fold change vs veh, DIAPH2 / RFU, SKA2 / Fold change vs veh, SKA2 / RFU, AFF3 / Fold change vs veh, AFF3 / RFU, LMF1 / Fold change vs veh, LMF1 / RFU, IPO11 / Fold change vs veh, IPO11 / RFU, DFFB / Fold change vs veh, DFFB / RFU, FOXP1 / Fold change vs veh, FOXP1 / RFU, CARD8 / Fold change vs veh, CARD8 / RFU, STRN3 / Fold change vs veh, STRN3 / RFU, ADK / Fold change vs veh, ADK / RFU, RASSF2 / Fold change vs veh, RASSF2 / RFU, WIPF1 / Fold change vs veh, WIPF1 / RFU, LARP1B / Fold change vs veh, LARP1B / RFU, RASA1 / Fold change vs veh, RASA1 / RFU, RB1 / Fold change vs veh, RB1 / RFU, PPFIA1 / Fold change vs veh, PPFIA1 / RFU, MAT2A / Fold change vs veh, MAT2A / RFU, CCT5 / Fold change vs veh, CCT5 / RFU, WDR92 / Fold change vs veh, WDR92 / RFU, CUX1 / Fold change vs veh, CUX1 / RFU, TTC7A / Fold change vs veh, TTC7A / RFU, TMEM135 / Fold change vs veh, TMEM135 / RFU, DEPTOR / Fold change vs veh, DEPTOR / RFU, CPM / Fold change vs veh, CPM / RFU, DNAJB6 / Fold change vs veh, DNAJB6 / RFU, CACNA2D3 / Fold change vs veh, CACNA2D3 / RFU, DTX4 / Fold change vs veh, DTX4 / RFU, TFCP2 / Fold change vs veh, TFCP2 / RFU, GMCL1 /// GMCL1P1 / Fold change vs veh, GMCL1 /// GMCL1P1 / RFU, AEBP2 / Fold change vs veh, AEBP2 / RFU, SNHG1 /// SNORD22 /// SNORD25 /// SNORD26 /// SNORD27 /// SNORD28 /// SNORD29 /// SNORD31 / Fold change vs veh, SNHG1 /// SNORD22 /// SNORD25 /// SNORD26 /// SNORD27 /// SNORD28 /// SNORD29 /// SNORD31 / Fold change (Aza/veh), C12orf56 (ProbeSet 11735607_a_at) / Fold change (ACY-1035/veh), C12orf56 (ProbeSet 11735607_a_at) / Fold change (Aza/veh), FGFR1OP (ProbeSet 11751329_s_at) / Fold change (ACY-1035/veh), FGFR1OP (ProbeSet 11751329_s_at) / Fold change (Aza/veh), VPS36 (ProbeSet 11739960_a_at) / Fold change (ACY-1035/veh), VPS36 (ProbeSet 11739960_a_at) / RFU SYPL1 (11715823_x_at) / Fold change /veh SYPL1 (11715823_x_at) / RFU IGFBP7 (11715501_s_at) / Fold change /veh IGFBP7 (11715501_s_at) / RFU REEP3 (11722064_at) / Fold change /veh REEP3 (11722064_at) / RFU IGLL1 (11728026_x_at) / Fold change /veh IGLL1 (11728026_x_at): dose or concentration left out as unconfirmed. As to conditions: MV-4-11 cells, 48 hours.

Consider `Nc1ccc(-c2cccs2)cc1NC(=O)c1ccc2c(c1)cc(C1CC1)n2CCN1CCOCC1` [ACY-1035], for which the “RFU PRSS12 (11739890_at)” value was 8.28 RFU.
